According to ChEMBL document CHEMBL5506044, “Ligandability Assessment of IL-1β by Integrated Hit Identification Approaches” (J Med Chem, 2024):
Bridge positions count the residues as written; N and C are the ends. Peptide text beside a SMILES is read from it.

Tests used:
[1] = target: T1, Interleukin-1 beta (Homo sapiens, UniProt P01584)
Description: Antagonist activity at human IL-1 beta assessed as inhibition of interaction of IL-1 beta/IL-1R1 expressed in NHDF cells by measuring reduction in IL-6 production preincubated with IL-1 beta for 1 hr followed by incubation with cells and measured after 6 hrs by ELISA

[2] = target: T1, Interleukin-1 beta; remark: listed apart in the source
Description: Antagonist activity at human IL-1 beta assessed as inhibition of interaction of IL-1beta/IL-1R1 expressed in HEK293-Blue cells by measuring reduction in SEAP activity preincubated with IL-1 beta for 1 hr followed by incubation with cells and measured after overnight by reporter gene assay

[3] = target: T1, Interleukin-1 beta; remark: listed apart in the source
[4] = target: T2, Interleukin-1 alpha (Homo sapiens, UniProt P01583)
T2 sequence (P01583 whole entry): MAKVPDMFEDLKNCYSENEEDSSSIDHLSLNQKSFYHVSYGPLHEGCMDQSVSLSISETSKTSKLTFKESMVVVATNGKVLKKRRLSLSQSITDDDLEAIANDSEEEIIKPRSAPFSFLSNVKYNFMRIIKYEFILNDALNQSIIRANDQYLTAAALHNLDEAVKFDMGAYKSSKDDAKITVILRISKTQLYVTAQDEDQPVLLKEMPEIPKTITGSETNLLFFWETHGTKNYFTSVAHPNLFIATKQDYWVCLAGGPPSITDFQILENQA
Description: Antagonist activity at human recombinant His-tagged wild type IL-1 alpha assessed as inhibition of IL-1 alpha/Alexa 647 labeled human IL-1R1 (1 to 332) interaction preincubated with IL-1 alpha for 1 hr followed by IL-1R1 addition and measured after 1 hr by TR-FRET assay

[5] = target: T1, Interleukin-1 beta; remark: listed apart in the source
Description: Antagonist activity at human recombinant His-tagged wild type IL-1 beta assessed as inhibition of IL-1 beta/Alexa 647 labeled human IL-1R1 (1 to 332) interaction preincubated with IL-1 beta for 1 hr followed by IL-1R1 addition and measured after 1 hr by TR-FRET assay

T1 sequence (P01584 117-269 limits assumed): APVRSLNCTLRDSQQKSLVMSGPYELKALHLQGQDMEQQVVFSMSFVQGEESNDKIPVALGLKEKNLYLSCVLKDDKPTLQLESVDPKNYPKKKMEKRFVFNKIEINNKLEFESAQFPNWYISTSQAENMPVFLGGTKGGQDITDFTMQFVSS

Compound | Ki [3] [µM] | IC50 [4] [µM] | IC50 [5] [µM] | also measured
Cc1ccc2c(c1)NC(=O)[C@@]2(c1cn[nH]c1)c1cc(-c2ccc(C(=O)O)cc2C(=O)O)ccc1O | < 10 |  |  | IC50 [1]: 7.9 µM; IC50 [2]: 5.3 µM
CC(C)c1cccc(-c2cc(C(=O)O)cn3cc(C(=O)N4CCN(S(=O)(=O)c5ccccc5)CCC4C(=O)NCCN4CCOCC4)nc23)c1 (configuration not stated) |  |  | > 200 | 
CC(C)c1cc(-c2cc(C(=O)O)cn3cc(C(=O)N4CCCN(S(=O)(=O)c5ccccc5)CC4)nc23)ccc1C=O |  | > 200 | > 200 | 
Cc1cc(O)c(C(c2cc(C3CC(C(=O)O)C3)ccc2O)c2c[nH]nc2C(=O)O)cc1C (racemic) | 43 |  |  | 
OC(c1ccc(OC(F)F)cc1)(c1cccc(Br)c1)c1cc[nH]n1 (racemic) | > 1000 |  |  | 

Continued by falling IC50 [5], values first:

Ki [3] [µM] | IC50 [4] [µM] | IC50 [5] [µM] | Compound | also measured
 | > 200 | 78.4 | CC(C)c1cc(-c2cc(C(=O)O)cn3cc(C(=O)N4CCN(S(=O)(=O)c5ccccc5)CC[C@@H]4C(=O)NCCN4CCOCC4)nc23)ccc1C=O | 
 | > 200 | 14 | NCCCC[C@H](NC(=O)CNC(=O)[C@@H]1CSCC(=O)N[C@@H](Cc2ccccc2)C(=O)N[C@@H](Cc2c[nH]c3ccccc23)C(=O)N[C@@H](CC(=O)O)C(=O)N[C@@H](CO)C(=O)N[C@@H](Cc2c[nH]c3ccccc23)C(=O)NCC(=O)N[C@@H](Cc2ccc(O)cc2)C(=O)N[C@@H](Cc2c[nH]c3ccccc23)C(=O)N[C@@H](Cc2ccc(O)cc2)C(=O)NCC(=O)N2CCC[C@H]2C(=O)N[C@@H](Cc2c[nH]c3ccccc23)C(=O)N[C@@H](CC(=O)O)C(=O)N1)C(N)=O ({CH2CO}-FWDSWGYWYGPWDCGK-NH2; thioether N-14) | 
 |  | 11 | CC(C)c1cc(-c2cc(C(=O)O)cn3cc(C(=O)N4CCN(S(=O)(=O)c5ccccc5)CCC4C(=O)NCCN4CCOCC4)nc23)ccc1C=O (racemic) | 
 | 99 | 8.3 | CC(C)c1cc(-c2cc(C(=O)O)cn3cc(C(=O)N4CCN(S(=O)(=O)c5ccccc5)CC[C@H]4C(=O)NCCN4CCOCC4)nc23)ccc1C=O | 
 | > 200 | 1.2 | O=Cc1ccc(-c2cc(C(=O)O)cn3cc(C(=O)N4CCN(S(=O)(=O)c5ccccc5)CC[C@H]4C(=O)NCCN4CCOCC4)nc23)cc1C(F)(F)F | 
